Results: ChEMBL document CHEMBL2169778, “Small molecule inhibitors of signal transducer and activator of transcription 3 (Stat3) protein” (J Med Chem, 2012)
Each block holds one molecule with its values, some of them ahead of it. Where a SMILES comes first, the peptide text is derived from it. [ ]: non-standard residue; d: D form. The star is where a group is joined. Pro(3S,4R-methano) = O=C(O)[C@H]1NC[C@@H]2C[C@@H]21; pY = N[C@@H](Cc1ccc(OP(=O)(O)O)cc1)C(=O)O; Hydrocinnamoyl = O=C(CCc1ccccc1)*; NHBn = c1ccc(CN*)cc1

What was measured:
[1] = molecular target: T1, Signal transducer and activator of transcription 3 (Homo sapiens, UniProt P40763); experiment: Inhibition of STAT3 SH2 domain using 5-carboxyfluorescein-GY(PO3H2)LPQTV-NH2 as substrate preincubated for 60 mins prior to substrate addition by fluorescence polarization assay
T1 sequence (P40763 whole entry, the tested form may be a part): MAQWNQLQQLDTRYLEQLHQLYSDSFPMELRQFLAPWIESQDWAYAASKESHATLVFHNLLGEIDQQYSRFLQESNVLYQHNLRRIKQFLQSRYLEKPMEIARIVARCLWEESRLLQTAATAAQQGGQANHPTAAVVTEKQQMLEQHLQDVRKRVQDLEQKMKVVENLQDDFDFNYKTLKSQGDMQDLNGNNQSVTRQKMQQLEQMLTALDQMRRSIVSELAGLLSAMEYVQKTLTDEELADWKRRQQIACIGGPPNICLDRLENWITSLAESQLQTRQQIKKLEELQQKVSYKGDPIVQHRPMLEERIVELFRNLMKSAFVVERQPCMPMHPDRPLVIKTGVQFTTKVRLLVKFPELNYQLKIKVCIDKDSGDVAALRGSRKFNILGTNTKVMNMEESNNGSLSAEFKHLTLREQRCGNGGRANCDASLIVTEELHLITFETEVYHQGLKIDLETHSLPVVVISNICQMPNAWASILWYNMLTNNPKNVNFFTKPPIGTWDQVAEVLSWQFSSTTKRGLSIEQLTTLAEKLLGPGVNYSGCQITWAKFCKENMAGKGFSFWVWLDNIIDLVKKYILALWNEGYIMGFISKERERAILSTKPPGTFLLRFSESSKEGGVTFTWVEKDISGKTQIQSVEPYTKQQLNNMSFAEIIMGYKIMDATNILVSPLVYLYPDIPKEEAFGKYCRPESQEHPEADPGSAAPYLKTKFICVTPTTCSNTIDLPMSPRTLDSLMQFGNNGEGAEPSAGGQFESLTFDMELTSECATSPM

[2] = molecular target: T2, Signal transducer and activator of transcription 3 (Mus musculus, UniProt P42227); experiment: Inhibition of STAT3 dimerization in v-Src transformed mouse NIH/3T3 cells overexpressing human EGFR assessed as suppression of STAT3-DNA interaction in nucleus after 30 mins by EMSA; assay type: cell-based, NIH3T3
T2 sequence (P42227 whole entry): as the sequence (P40763 whole entry, the tested form may be a part) above, with E760D counted along it

[3] = molecular target: T1, Signal transducer and activator of transcription 3; experiment: Inhibition of IL6-mediated STAT3 phosphorylation in human HepG2 cells preincubated for 1 hr prior to IL6 challenge measured after 30 mins by immunoblot analysis; assay type: cell-based
[4] = molecular target: T1, Signal transducer and activator of transcription 3; experiment: Inhibition of recombinant STAT3 assessed as inhibition of STAT3-phosphododecapeptide interaction by SPR analysis
[5] = molecular target: T3, Signal transducer and activator of transcription 1-alpha/beta (Homo sapiens, UniProt P42224); experiment: Inhibition of STAT1 SH2 domain by fluorescence polarization assay
T3 sequence (P42224 whole entry): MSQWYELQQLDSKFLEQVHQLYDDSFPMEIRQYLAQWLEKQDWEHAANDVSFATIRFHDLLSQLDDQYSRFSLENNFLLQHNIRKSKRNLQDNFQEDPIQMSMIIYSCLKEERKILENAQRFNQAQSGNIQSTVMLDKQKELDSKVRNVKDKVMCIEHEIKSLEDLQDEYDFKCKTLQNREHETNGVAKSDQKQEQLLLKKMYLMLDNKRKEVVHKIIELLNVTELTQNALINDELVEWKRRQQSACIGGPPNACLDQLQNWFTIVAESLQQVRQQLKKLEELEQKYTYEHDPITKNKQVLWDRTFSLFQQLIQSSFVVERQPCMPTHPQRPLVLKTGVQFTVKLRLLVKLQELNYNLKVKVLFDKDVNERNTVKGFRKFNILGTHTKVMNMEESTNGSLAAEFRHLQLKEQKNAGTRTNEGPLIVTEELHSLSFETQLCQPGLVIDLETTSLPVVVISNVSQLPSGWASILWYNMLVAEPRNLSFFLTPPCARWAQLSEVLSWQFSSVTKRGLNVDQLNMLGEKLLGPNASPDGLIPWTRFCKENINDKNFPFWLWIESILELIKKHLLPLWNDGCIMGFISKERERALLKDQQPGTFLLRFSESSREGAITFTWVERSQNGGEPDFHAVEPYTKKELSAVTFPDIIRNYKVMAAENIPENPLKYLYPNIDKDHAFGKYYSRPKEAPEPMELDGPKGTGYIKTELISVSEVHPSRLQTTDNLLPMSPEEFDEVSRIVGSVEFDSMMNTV

[6] = Cytotoxicity against mouse TE71 without constitutively active STAT3 after 24 to 144 hrs by trypan blue-staining based phase contrast microscopy
[7] = Cytotoxicity against HPDEC without constitutively active STAT3 after 24 to 144 hrs by trypan blue-staining based phase contrast microscopy; settings: Homo sapiens
NIH3T3 = experiment: Cytotoxicity against mouse NIH/3T3 cells without constitutively active STAT3 after 24 to 144 hrs by trypan blue-staining based phase contrast microscopy; assay type: cell-based
MDA-MB-231 = experiment: Cytotoxicity against human MDA-MB-231 cells harboring constitutively active STAT3 after 24 to 144 hrs by trypan blue-staining based phase contrast microscopy; assay type: functional, cell-based
PANC-1 = experiment: Cytotoxicity against human PANC1 cells harboring constitutively active STAT3 after 24 to 144 hrs by trypan blue-staining based phase contrast microscopy; assay type: functional, cell-based
[8] = molecular target: T2, Signal transducer and activator of transcription 3; experiment: Binding affinity to STAT3 SH2 in v-Src transformed mouse NIH/3T3 cells overexpressing human EGFR; assay type: cell-based, NIH3T3
[9] = Binding affinity to full length STAT3alpha by fluorescence polarization assay
[10] = molecular target: T1, Signal transducer and activator of transcription 3; experiment: Inhibition of STAT3 expressed in human U3A cells after 1 hr by luciferase reporter gene assay; assay type: cell-based
SNU-449 = experiment: Cytotoxicity against human SNU449 cells with intact TGFbeta pathway assessed as growth inhibition at 250 uM after 72 hrs by MTT assay; assay type: functional; settings: SNU-449, 72 h, read-out: GI
[11] = Cytotoxicity against human PLC/PRF/5 cells with intact TGFbeta pathway assessed as growth inhibition at 250 uM after 72 hrs by MTT assay; assay type: functional, cell-based
HepG2 = experiment: Cytotoxicity against human HepG2 cells with intact TGFbeta pathway assessed as growth inhibition at 250 uM after 72 hrs by MTT assay; assay type: functional; settings: HepG2, 72 h, read-out: GI
SNU-398 = experiment: Cytotoxicity against human SNU398 cells with impaired TGFbeta pathway assessed as growth inhibition at 250 uM after 72 hrs by MTT assay; assay type: functional; settings: SNU-398, 72 h, read-out: GI
SNU-475 = experiment: Cytotoxicity against human SNU475 cells with impaired TGFbeta pathway assessed as growth inhibition at 250 uM after 72 hrs by MTT assay; assay type: functional; settings: SNU-475, 72 h, read-out: GI
[12] = Cytotoxicity against human SNU182 cells with impaired TGFbeta pathway assessed as growth inhibition at 250 uM after 72 hrs by MTT assay; assay type: functional, cell-based; settings: SNU-182
Huh-7 = experiment: Cytotoxicity against human HuH7 cells with impaired TGFbeta pathway assessed as growth inhibition at 250 uM after 72 hrs by MTT assay; assay type: functional; settings: Huh-7, 72 h, read-out: GI
[13] = molecular target: T1, Signal transducer and activator of transcription 3; experiment: Inhibition of STAT3 SH2 domain assessed as inhibition of STAT3 SH2-phosphotyrosine interaction after 15 mins by fluorescence polarization assay
[14] = molecular target: T3, Signal transducer and activator of transcription 1-alpha/beta; experiment: Inhibition of STAT1 SH2 domain assessed as inhibition of STAT1 SH2-phosphotyrosine interaction by AlphaScreen assay
[15] = molecular target: T1, Signal transducer and activator of transcription 3; experiment: Inhibition of STAT3 SH2 domain assessed as inhibition of STAT3 SH2-phosphotyrosine interaction by AlphaScreen assay
[16] = molecular target: T1, Signal transducer and activator of transcription 3; experiment: Inhibition of STAT3 in human MDA-MB-435 cells at 20 uM after 48 hrs by luciferase reporter gene assay relative to untreated control; assay type: cell-based
[17] = molecular target: Tyrosine-protein kinase JAK2 (Homo sapiens) (UniProt O60674); settings: at 5 µM
Tyrosine-protein kinase JAK2 (Homo sapiens), sequence (O60674 whole entry): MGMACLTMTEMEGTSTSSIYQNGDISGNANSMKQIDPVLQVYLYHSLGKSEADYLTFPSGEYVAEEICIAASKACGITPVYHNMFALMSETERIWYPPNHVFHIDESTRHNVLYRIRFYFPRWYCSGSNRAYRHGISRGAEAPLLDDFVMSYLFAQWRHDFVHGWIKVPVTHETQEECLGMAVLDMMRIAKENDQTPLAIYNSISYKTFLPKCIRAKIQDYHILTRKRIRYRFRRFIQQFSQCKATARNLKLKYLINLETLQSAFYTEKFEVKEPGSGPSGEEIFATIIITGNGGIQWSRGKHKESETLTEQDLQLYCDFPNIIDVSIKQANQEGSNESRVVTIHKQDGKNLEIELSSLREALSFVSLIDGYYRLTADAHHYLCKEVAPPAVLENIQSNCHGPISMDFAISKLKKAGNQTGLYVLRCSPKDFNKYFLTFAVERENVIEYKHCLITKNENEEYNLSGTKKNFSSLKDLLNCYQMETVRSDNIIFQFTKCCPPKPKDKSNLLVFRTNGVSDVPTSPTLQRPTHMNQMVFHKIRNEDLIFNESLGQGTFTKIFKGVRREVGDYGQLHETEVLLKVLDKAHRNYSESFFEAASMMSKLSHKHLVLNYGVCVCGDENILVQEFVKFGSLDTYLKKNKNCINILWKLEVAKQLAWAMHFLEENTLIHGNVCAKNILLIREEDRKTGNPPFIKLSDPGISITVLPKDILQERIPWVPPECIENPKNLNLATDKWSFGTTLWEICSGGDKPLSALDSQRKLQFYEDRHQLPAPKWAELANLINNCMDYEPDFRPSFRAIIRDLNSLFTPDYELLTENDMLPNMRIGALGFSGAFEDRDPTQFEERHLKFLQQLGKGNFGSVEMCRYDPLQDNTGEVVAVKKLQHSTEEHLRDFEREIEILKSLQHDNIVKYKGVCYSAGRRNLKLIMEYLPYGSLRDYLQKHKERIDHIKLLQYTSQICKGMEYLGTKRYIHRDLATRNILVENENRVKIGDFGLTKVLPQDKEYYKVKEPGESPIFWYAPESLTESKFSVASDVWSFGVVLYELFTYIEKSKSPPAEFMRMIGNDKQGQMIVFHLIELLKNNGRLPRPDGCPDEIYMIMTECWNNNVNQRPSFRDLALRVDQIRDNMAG
Description: Inhibition of JAK2 at 5 uM by high throughput assay

Structure (SMILES): O=[N+]([O-])c1ccc2c(c1)S(=O)(=O)C=C2
IC50 [1]: 5.1 µM

Structure (SMILES): Cc1ccc(S(=O)(=O)N(C)CC(=O)N(Cc2ccc(C3CCCCC3)cc2)c2ccc(C(=O)O)c(O)c2)cc1
Ki [5]: ≥ 50 µM
IC50 [6]: > 200 µM
IC50 [7]: > 200 µM
IC50 (NIH3T3): > 200 µM
IC50 (MDA-MB-231): 37 µM
IC50 (PANC-1): 48 µM
Kd [8]: 2.74 µM

Structure (SMILES): CCCCCCNC(=O)c1nc(-c2cccc3ccccc23)oc1Cc1ccc(OP(=O)(O)O)cc1
IC50 [2]: 58 µM

Structure (SMILES): CC(C)C[C@H](NC(=O)[C@H](Cc1ccc(OP(=O)(O)O)cc1)NC(=O)CCc1ccccc1)C(=O)N1C[C@@H]2C[C@@H]2[C@H]1C(=O)N[C@@H](CCC(N)=O)C(=O)NCc1ccccc1 (Hydrocinnamoyl-[pY]L[Pro(3S,4R-methano)]Q-NHBn)
Ki [9]: 0.125 µM

Structure (SMILES): COc1cccc(NC(=O)c2nc(-c3ccccc3)sc2Cc2ccc(OP(=O)(O)O)cc2)c1
IC50 [2]: 28 µM

Structure (SMILES): O=C(N/N=C/c1ccc([N+](=O)[O-])o1)c1ccc(O)cc1 [NIFUROXAZIDE]
EC50 [10]: 3 µM

Structure (SMILES): O=C(Nc1ccc(C2CCCCC2)cc1)c1nc(-c2ccccc2)oc1Cc1ccc(OP(=O)(O)O)cc1
IC50 [2]: 33 µM

Structure (SMILES): Cc1ccc(S(=O)(=O)OCC(=O)Nc2ccc(C(=O)O)c(O)c2)cc1
inhibition of growth at 250 µM (SNU-449): 20%
growth inhibition (GI) [11]: 20%
inhibition of growth at 250 µM (HepG2): 20%
inhibition of growth at 250 µM (SNU-398): 80%
inhibition of growth at 250 µM (SNU-475): 80%
growth inhibition (GI) [12]: 80%
inhibition of growth at 250 µM (Huh-7): 80%

Structure (SMILES): Cc1ccc(S(=O)(=O)N(C)CC(=O)N(Cc2ccc(C3CCN(c4ccc(C#N)cc4)CC3)cc2)c2ccc(C(=O)O)c(O)c2)cc1
Ki [13]: 18.7 µM

Second part, the molecule after the results:

IC50 [2]: 25 µM
Structure (SMILES): CCCCCCNC(=O)c1nc(-c2cccc3ccccc23)sc1Cc1ccc(OP(=O)(O)O)cc1

IC50 [3]: 91 µM
IC50 [4]: 447 µM
Structure (SMILES): O=C(O)c1ccc(/C=C/C(=O)c2ccc3c(c2)OCCO3)cc1

Ki [13]: 50 µM
Structure (SMILES): Cc1ccc(S(=O)(=O)OCC(=O)N(Cc2ccc(C3CCCCC3)cc2)c2ccc(C(=O)O)c(O)c2)cc1

IC50 [2]: 90 µM
Structure (SMILES): COc1cccc(NC(=O)c2nc(-c3ccccc3)oc2Cc2ccc(OP(=O)(O)O)cc2)c1

IC50 [14]: 10 µM
IC50 [15]: 0.28 µM
Structure (SMILES): C1=Cc2nc1cc1ccc([nH]1)c(-c1ccccc1)c1nc(cc3ccc([nH]3)c2-c2ccccc2)C=C1

fold change (FC) [16]: 5
Structure (SMILES): C[C@@H]1CC(=O)c2c(ccc3c2C(=O)c2cccc(O)c2C3=O)C1

inhibition [17]: 60%
Structure (SMILES): COc1ccc(/C=C/C(=O)C(C)(C)C(=O)/C=C/c2ccc(OC)c(OC)c2)cc1OC
